Tested on: blood
Test: Blood clotting time on microfluidic closed device chip, by IR light transmission and impedance
Design: species or system patient
Conditions: PER977 added to blood sample containing edoxaban, both at 300 ng/mL; IR and impedance curves; room temperature
Method: For detection of clotting through measurement of impedances, a sample is loaded into the chip, the chip is inserted into its reader, and the pogo pins connecting to the internal impedance electrodes connected via Kelvin clip leads to a QuadTech 1920 LCR meter. The magnitude and the phase of the complex impedance of the blood sample were recorded at 15 second intervals. […] The peaks or plateaus indicated a measure for the clotting time.
For optical clot detection, IR LED and photodiode are inserted into their reader parts as described above. A blood sample is pipetted into the chip and the chip placed into the reader. The sample is continuously illuminated with IR light at 1,300 nm. At time intervals of typically 100 ms, the voltage drop across a 1 MOhm resistor caused by the photocurrent of the photodiode was recorded. Voltages typically measured several volts. Clotting of the sample caused the transmitted light and the photocurrent to vary over time. Characteristic peaks of the transmitted light curve indicated a measure for the clotting time.
Blood was harvested from a patient using commercially available lancing devices. 10 μL of blood were obtained and pipetted into an Eppendorf tube. […]
Edoxaban is a commercially available anticoagulant. […] The chip was inserted into its reader, and both IR light and impedance measurements were immediately recorded at room temperature (approximately 27° C.). […]

N=C(N)NCCC[C@H](N)C(=O)NCCCN1CCN(CCCNC(=O)[C@@H](N)CCCNC(=N)N)CC1 [PER977, ciraparantag]
characteristic peak indicative of the sample clotting time: 2 min | occurrence of a local minimum around 12 minutes: suppresses the occurrence of a local minimum

Source: patent US12716903B2, “Microfluidic chip-based, universal coagulation assay” (Perosphere Technologies Inc., priority 2014, dated 2026)
